Measurements reported in patent US20210255193A1, “LYSINE REACTIVE PROBES AND USES THEREOF” (The Scripps Research Institute, priority 2017, published 2021).

System: lysines in the human breast cancer cell MDA-MB-231 proteome
Assay: competitive isoTOP-ABPP, proteome-wide fragment reactivity
Format: binding
Details: for proteome-wide reactivity: fragments 50-100 μM; for lysines reacted that showed negligible cross-reactivity with activated esters: human cell proteomes
Protocol: In vitro covalent fragment treatment for isoTOP-ABPP. All compounds were made up as solutions in DMSO (100×) and were used at a final concentration of 50 μM for activated esters and 100 μM for guanidinylating agents. For each profiling sample, 0.5 ml of lysate was treated with 5 μl of the 100× compound stock solution or 5 μl of DMSO. Samples were treated with activated esters for
STP-alkyne labeling and click chemistry. For concentration-dependent reactivity measurements by isoTOP-ABPP, 0.5 ml proteome aliquots were treated at ambient temperature with 1 mM STP-alkyne 1 (5 μl of 100 mM stock in DMSO) and 0.1 mM STP alkyne 1 (5 μl of 10 mM stock in DMSO), respectively. For competitive isoTOP-ABPP, after in vitro fragment treatment (detailed above), the samples were labeled for 1 h at ambient temperature with 0.1 mM STP-alkyne 1 (5 μl of 10 mM stock in DMSO). Samples were conjugated by copper-mediated azide-alkyne cycloaddition (CuAAC) to either the light (1 mM STP-alkyne or fragment treated) or heavy (0.1 mM STP-alkyne or DMSO treated) TEV tags (10 μl of 5 mM stocks in DMSO, final concentration=100 μM) using tris(2-carboxyethyl)phosphine hydrochloride
R value calculation and processing. The ratios of light and heavy MS1 peaks for each unique peptide were quantified with a CIMAGE software using default parameters (3 MS1 acquisitions per peak and signal to noise threshold set to 2.5). For reactivity measurements by isoTOP-ABPP, the R value was calculated from the ratio of MS1 peak areas, comparing the 1 mM STP alkyne sample (light TEV tag) with the 0.1 mM STP alkyne sample (heavy TEV tag). For competitive isoTOP-ABPP, the R value was calculated from the ratio of MS1 peak areas, comparing the DMSO treated sample (heavy TEV tag) with the compound treated sample (light TEV tag). […] Ratios for unique peptide entries are calculated for each experiment; overlapping peptides with the same modified lysine (for example, different charge states, MudPIT chromatographic steps or tryptic termini) are grouped together and the median ratio is reported as the final ratio (R). The peptide ratios reported by CIMAGE were further filtered to ensure the removal or correction of low-quality ratios in each individual data set. The quality filters applied were the following: removal of half tryptic peptides; for ratios with high standard deviations from the median (90% of the median or above) the lowest ratio was taken instead of the median; removal of peptides with R=20 and only a single MS2 event triggered during the elution of the parent ion; manual annotation of all the peptides with ratios of 20, removing any peptides with low quality elution profiles that remained after the previous curation steps (only done for competitive isoTOP-ABPP).
Cross-data processing for fragment screening. For compound treated samples, biological replicates of the same condition were averaged, if the standard deviation was below 60% of the mean; otherwise, for lysines with at least one R value <4 for a particular compound, the lowest value of the ratio set was taken. For lysines, where all R values for a particular compound were ≥4, the average was reported. For peptides containing several possible modified lysines, the lysine with the highest number of quantification events was used for analysis and the remaining, redundant peptides were reported as alternative modification sites. Peptides included in the aggregate dataset (those used for further bioinformatics and statistical analyses) were required to have been quantified in 2 experiments for competitive isoTOP-ABPP. Lysines were categorized as liganded, if they had at least one ratio R≥4 (hit fragments). For liganded lysines with R=20 for all liganding events, lysines were required to have been quantified with R=20 in two separate experiments and were further required to have been quantified with R<20 in one additional experiment. […]

Structure (SMILES) | proteome-wide reactivity | other results
O=C(Oc1c(F)c(F)c(F)c(F)c1F)C(c1ccccc1)c1ccccc1 [fragment 20, Pentafluorophenyl 2,2-diphenylacetate] | limited reactivity across the proteome | 
O=C(Oc1ccc([N+](=O)[O-])cc1[N+](=O)[O-])C(c1ccccc1)c1ccccc1 [fragment 30, 2,4-Dinitrophenyl 2,2-diphenylacetate] | much greater proteome-wide reactivity | 
O=C(Oc1c(F)c(F)c(F)c(F)c1F)c1cc(C(F)(F)F)cc(C(F)(F)F)c1 [fragment 21, Pentafluorophenyl 3,5-bis(trifluoromethyl)benzoate] | low proteome-wide reactivity | 
O=C(CCc1cn(-c2ccccc2)nc1-c1ccccc1)Oc1ccc([N+](=O)[O-])cc1[N+](=O)[O-] [fragment 29, 2,4-Dinitrophenyl 3-(1,3-diphenyl-1H-pyrazol-4-yl)propanoate] | much greater proteome-wide reactivity | 
NC(=O)c1cc(C(F)(F)F)cc(C(F)(F)F)c1 [fragment 51, reference compound] |  | lysine reactivity (competition with probe 1 (100 μM)): No lysine reactivity was observed
CC(C)(C)OC(=O)N=C(NC(=O)OC(C)(C)C)n1cccn1 [fragment 50, reference compound] |  | lysines reacted that showed negligible cross-reactivity with activated esters: 15
COC(=O)NC(=NC(=O)OCC1c2ccccc2-c2ccccc21)n1cccn1 [fragment 49, N-Methoxycarbonyl-N′-9-fluorenylmethoxycarbonyl-pyrazole-1-carboxamidine] |  | lysines reacted that showed negligible cross-reactivity with activated esters: 15
